# Entries after “also recorded” stand apart in the source; their conditions may differ.
# Tests used:
# SpCas9 [1] = molecular target: T1, SpCas9 (Streptococcus pyogenes serotype M1, UniProt Q99ZW2); assay: cell-based
# SpCas9 [2] = molecular target: T1, SpCas9; settings: FIG. 16C
# FnCpf1 = FnCpf1 (Francisella tularensis subsp. novicida, UniProt A0Q7Q2); assay type: biochemical; settings: FIG. 22B
# [3] = tested on: CRISPR mediated gene tagging with HiBiT; assay: CRISPR mediated gene tagging with HiBiT in cells (bioluminescence); assay type: cell-based; settings: various concentrations; FIG. 17B
# SpCas9 [4] = molecular target: T1, SpCas9; assay: Broad spectrum CRISPR inhibition, SpCas9 (FIG. 22A); assay type: biochemical, S. pyogenes
# T1 sequence (Q99ZW2 whole entry): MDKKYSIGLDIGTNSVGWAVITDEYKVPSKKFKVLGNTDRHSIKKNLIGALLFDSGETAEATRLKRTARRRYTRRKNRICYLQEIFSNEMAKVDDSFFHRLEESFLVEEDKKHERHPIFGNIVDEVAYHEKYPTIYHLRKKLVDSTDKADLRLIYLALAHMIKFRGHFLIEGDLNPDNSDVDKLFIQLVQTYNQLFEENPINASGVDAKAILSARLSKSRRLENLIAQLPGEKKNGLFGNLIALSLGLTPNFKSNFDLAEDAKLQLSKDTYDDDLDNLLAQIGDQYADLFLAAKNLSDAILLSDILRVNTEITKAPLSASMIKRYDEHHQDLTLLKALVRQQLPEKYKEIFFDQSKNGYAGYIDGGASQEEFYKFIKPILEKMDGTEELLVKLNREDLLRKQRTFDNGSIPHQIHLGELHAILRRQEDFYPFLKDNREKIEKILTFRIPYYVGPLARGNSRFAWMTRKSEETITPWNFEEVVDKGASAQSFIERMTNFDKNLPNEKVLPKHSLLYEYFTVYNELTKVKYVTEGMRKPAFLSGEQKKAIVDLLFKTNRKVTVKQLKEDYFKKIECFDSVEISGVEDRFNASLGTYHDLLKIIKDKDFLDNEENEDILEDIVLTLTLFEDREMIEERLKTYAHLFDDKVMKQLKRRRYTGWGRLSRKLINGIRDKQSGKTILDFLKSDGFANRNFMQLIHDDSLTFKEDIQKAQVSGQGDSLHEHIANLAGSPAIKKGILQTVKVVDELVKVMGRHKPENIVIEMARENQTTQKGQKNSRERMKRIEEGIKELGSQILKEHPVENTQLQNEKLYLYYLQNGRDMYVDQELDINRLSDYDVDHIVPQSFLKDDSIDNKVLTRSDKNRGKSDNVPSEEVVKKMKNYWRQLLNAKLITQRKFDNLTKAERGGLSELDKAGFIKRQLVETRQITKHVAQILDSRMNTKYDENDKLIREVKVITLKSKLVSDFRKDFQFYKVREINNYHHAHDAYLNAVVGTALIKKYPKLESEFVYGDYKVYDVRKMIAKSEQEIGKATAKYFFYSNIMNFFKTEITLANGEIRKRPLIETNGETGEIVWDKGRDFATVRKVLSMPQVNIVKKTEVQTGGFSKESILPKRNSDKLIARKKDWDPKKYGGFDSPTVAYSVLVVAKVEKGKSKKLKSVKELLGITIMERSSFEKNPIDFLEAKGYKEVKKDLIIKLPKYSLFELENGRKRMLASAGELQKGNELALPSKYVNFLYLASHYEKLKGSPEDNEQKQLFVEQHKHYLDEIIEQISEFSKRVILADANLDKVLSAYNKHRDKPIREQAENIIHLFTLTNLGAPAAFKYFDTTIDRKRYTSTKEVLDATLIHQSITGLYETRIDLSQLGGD
# Sequence of FnCpf1 (A0Q7Q2 whole entry, looked up): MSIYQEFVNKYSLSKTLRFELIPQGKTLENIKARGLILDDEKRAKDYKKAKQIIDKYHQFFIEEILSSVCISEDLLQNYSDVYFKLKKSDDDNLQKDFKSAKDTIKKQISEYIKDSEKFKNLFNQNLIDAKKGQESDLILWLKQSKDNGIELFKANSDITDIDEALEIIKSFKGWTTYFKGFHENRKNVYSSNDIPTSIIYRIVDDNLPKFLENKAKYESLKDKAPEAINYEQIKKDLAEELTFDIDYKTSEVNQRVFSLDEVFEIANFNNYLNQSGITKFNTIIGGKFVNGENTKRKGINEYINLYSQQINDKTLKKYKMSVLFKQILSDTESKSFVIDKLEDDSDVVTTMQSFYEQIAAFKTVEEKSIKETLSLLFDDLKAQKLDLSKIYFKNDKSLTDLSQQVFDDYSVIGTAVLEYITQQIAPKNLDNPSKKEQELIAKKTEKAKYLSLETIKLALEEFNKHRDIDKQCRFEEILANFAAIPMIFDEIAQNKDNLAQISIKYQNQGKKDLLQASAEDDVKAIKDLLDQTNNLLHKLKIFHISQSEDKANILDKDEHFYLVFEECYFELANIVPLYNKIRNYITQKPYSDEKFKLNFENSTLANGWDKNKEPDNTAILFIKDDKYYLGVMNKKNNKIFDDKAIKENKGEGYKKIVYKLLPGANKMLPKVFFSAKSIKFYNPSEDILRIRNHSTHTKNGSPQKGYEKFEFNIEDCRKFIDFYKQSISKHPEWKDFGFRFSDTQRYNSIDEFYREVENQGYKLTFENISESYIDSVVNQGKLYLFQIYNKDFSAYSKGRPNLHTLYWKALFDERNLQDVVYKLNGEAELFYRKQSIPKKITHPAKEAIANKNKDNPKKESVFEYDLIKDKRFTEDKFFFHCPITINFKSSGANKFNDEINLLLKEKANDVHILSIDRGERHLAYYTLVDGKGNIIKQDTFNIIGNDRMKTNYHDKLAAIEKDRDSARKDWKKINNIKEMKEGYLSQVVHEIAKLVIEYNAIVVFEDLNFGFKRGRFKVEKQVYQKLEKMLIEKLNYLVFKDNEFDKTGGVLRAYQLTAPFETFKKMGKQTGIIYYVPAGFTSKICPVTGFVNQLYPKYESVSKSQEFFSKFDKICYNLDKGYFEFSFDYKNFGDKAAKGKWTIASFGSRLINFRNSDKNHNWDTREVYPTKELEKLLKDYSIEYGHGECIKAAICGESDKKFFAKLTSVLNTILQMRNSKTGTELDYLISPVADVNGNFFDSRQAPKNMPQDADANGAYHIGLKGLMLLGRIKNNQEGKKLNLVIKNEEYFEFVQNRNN
structure (smiles),measurement,setting,value
N#C[C@@H]1N[C@H](CO)[C@H]1c1ccc(-c2ccccc2F)cc1 [BRD7608],IC50,SpCas9 [1],3.9 µM
same,eGFP fluorescence in the presence of eGFP-targeted SpCas9 activity,SpCas9 [2],eGFP fluorescence is maintained
same,Inhibition of FnCpf1,FnCpf1,broad-spectrum CRISPR inhibitors; also recorded: similarly inhibit
same,Inhibition of CRISPR mediated gene tagging with HiBiT (bioluminescence),[3],inhibited in a dose-dependent manner
same,Inhibition of SpCas9,SpCas9 [4],broad-spectrum CRISPR inhibitors; also recorded: similarly inhibit
N#C[C@H]1N[C@@H](CO)[C@@H]1c1ccc(C#CC2CCCC2)cc1 [BRD9822],IC50,SpCas9 [1],5.5 µM
same,eGFP fluorescence in the presence of eGFP-targeted SpCas9 activity,SpCas9 [2],eGFP fluorescence is maintained
same,Inhibition of FnCpf1,FnCpf1,broad-spectrum CRISPR inhibitors; also recorded: similarly inhibit
same,Inhibition of CRISPR mediated gene tagging with HiBiT (bioluminescence),[3],inhibited in a dose-dependent manner
same,Inhibition of SpCas9,SpCas9 [4],broad-spectrum CRISPR inhibitors; also recorded: similarly inhibit

# Source: patent publication US12460244B2, “Inhibitors of RNA-guided nuclease activity and uses thereof” (THE BROAD INSTITUTE, INC., priority 2018, dated 2025)
